Values after ≈ are worked out from the molar mass of the structure shown.
Settings: for aqueous solubility: pH 6.8

Row | SMILES | MDR1-MDCK efflux ratio | intrinsic clearance, human liver microsomes [mL/min/kg] | intrinsic clearance, rat liver microsomes [mL/min/kg] | aqueous solubility [µg/mL] | fraction unbound, human plasma | fraction unbound, rat plasma
1 | Cc1cccc(NC(=O)c2cccc3ncccc23)c1 | 0.471 | 22.2 | 155 | 4.85 (≈ 18.5 µM) |  | 
2 | CCCn1ncc2[nH]c(-c3cc(Cn4cncn4)c(C)cc3C)nc21 | 90.9 | 51.7 | 199 | 33.6 (≈ 100 µM) |  | 
3 | Cc1noc2ncc(-c3nnc(CC(C)(C)C)o3)cc12 |  |  |  | 37.7 (≈ 138 µM) |  | 
4 | COc1ccc2c(c1)C(=O)N(c1ccccc1OC)C(=O)C2 |  |  |  | 40.3 (≈ 135 µM) |  | 
5 | C/N=C(\NC#N)NCCSCc1nc[nH]c1C |  | ≤ 4.74 | ≤ 10.7 | 41.6 (≈ 165 µM) |  | 
6 | Cc1nn(C)c2sc(C(=O)N3CCC(C(=O)O)(c4ccccc4)CC3)cc12 | 8.54 | ≤ 4.74 | ≤ 10.7 | 73.7 (≈ 192 µM) |  | 
7 | C=CC(=O)Nc1cccc(Oc2nc(Nc3ccc(N4CCN(C)CC4)c(F)c3)nc3[nH]ccc23)c1 | 50.6 | 26.8 | 344 |  | 0.0109 | 0.00726
8 | COCCCNc1nnc(-c2ccncc2)s1 | 0.654 | 13.3 | 84.1 |  |  | 
9 | COc1ccc(-c2noc([C@@H]3CCCN3Cc3cccnc3)n2)cn1 | 0.759 | 98 | 1240 | 26.2 (≈ 77.7 µM) |  | 
10 | CN(Cc1cccc(Cl)c1Cl)Cc1cc(=O)n(C)c(=O)n1C | 0.829 | 191 | 2760 |  |  | 
11 | COc1ccccc1-n1cc(CNC(=O)N(C)Cc2c(C)nn(C)c2C)cn1 | 54.7 | 75.5 | 511 |  |  | 
12 | Cc1ccc(-c2ccc3c(ccc4sc5c(c43)NC[C@@H](C)NC5=O)n2)cn1 | 5.49 |  |  | 0.2 (≈ 0.534 µM) |  | 
13 | CC1(C)COCCN1Cc1cnn(-c2ccccc2)n1 | 0.545 | 10.7 | 1070 | 14.7 (≈ 54.1 µM) |  | 
14 | CCn1cnnc1C1CCCN(c2ncnc3sc(-c4ccccc4)cc23)C1 (stereo unspecified) |  |  |  | 34.8 (≈ 89 µM) |  | 
15 | CC(C)c1cc(CN(C)Cc2c[nH]nc2-c2ccc(F)cc2)no1 | 1.01 | 325 | 1780 | 22.2 (≈ 67.8 µM) |  | 
16 | CC#CC(=O)N1CC[C@@H](n2c(=O)n(-c3ccc(Oc4ccccc4)cc3)c3c(N)ncnc32)C1 | 28.9 | 21.3 | 187 | 64.6 (≈ 142 µM) | 0.0863 | 0.0467
17 | CNC(=O)C1(Cc2ccc(-c3cccnc3)cc2)CCN(Cc2cccc(F)c2)C1 (stereo unspecified) | 1.32 | 280 | 982 |  | 0.0676 | 0.034
18 | CC(C)C[C@@H](CO)n1cc(-c2ccccc2Cn2cccn2)nn1 | 6.29 | 101 | 513 | 17 (≈ 52.3 µM) |  | 
19 | CCN1C(=O)C(C)(C)COc2cc(NS(=O)(=O)c3cc(C)c(C)cc3OC)ccc21 |  | 445 | 9320 |  |  | 
20 | Cc1cccnc1NC(=O)CCn1cnc2ccccc21 | 15.9 | ≤ 4.74 | ≤ 10.7 | 48.1 (≈ 172 µM) |  | 
21 | CC(C)CNc1nnc(SCc2ccncc2)s1 | 1.03 | 30.9 | 631 | 48 (≈ 171 µM) |  | 
22 | Nc1ccc(Cl)c(NC2=NN(c3c(Cl)cc(Cl)cc3Cl)C(=O)C2)c1 |  | 92.5 | 702 | 14.1 (≈ 34.8 µM) |  | 
23 | C#CCNC(=O)Cc1coc(-c2ccccc2)n1 | 0.719 | 26.9 | 142 |  |  | 
24 | CC(C)(C)OC(=O)c1ccc(-n2[nH]cc(-n3ccnn3)c2=O)nc1 | 1.19 | ≤ 4.74 | 20.7 |  |  | 
25 | Cn1ccc(CN2C(=O)c3ccccc3C2=O)cc1=O | 1.9 | ≤ 4.74 | 12.1 | 50 (≈ 187 µM) |  | 
26 | Cc1cccc(-n2c(S)nnc2CNc2ccc(F)cc2)c1 | 2.44 | 17.2 | 188 | 50.2 (≈ 160 µM) |  | 
27 | CC(C)NC(=O)COc1cccc(-c2nc(Nc3ccc4[nH]ncc4c3)c3ccccc3n2)c1 | 20 | 42.7 | 1560 |  | 0.00041 | 0.00313

Further lines, results first:

Row | MDR1-MDCK efflux ratio | intrinsic clearance, human liver microsomes [mL/min/kg] | intrinsic clearance, rat liver microsomes [mL/min/kg] | aqueous solubility [µg/mL] | fraction unbound, human plasma | fraction unbound, rat plasma | SMILES
28 |  | ≤ 4.74 | ≤ 10.7 |  |  |  | Cc1nn(C)c(C)c1CNc1ccc(N2CCN(C)CC2)nc1
29 | 1.95 | 7.92 | 29.2 |  |  |  | Cc1cc(C(=O)N(C)CC2CCN(CCO)CC2)cc(C)n1
30 | 12.9 | ≤ 4.74 | 41.1 |  |  |  | COC(C)(C)CCNC(=O)CC1CC(C)(C)NC(C)(C)C1
31 | 9.14 | 71 | 1180 | 60.8 (≈ 181 µM) |  |  | O=C(CSC1CCCC1)NCCn1nc2c(cc1=O)CCCC2
32 | 2.68 | 23.8 | 393 |  |  |  | O=C(CNc1cc(N2CCCC2=O)ccc1F)N1CCCCCC1
33 | 51.4 | 185 | 473 | 70.2 (≈ 178 µM) |  |  | CCN1C(=O)CC[C@H](C(=O)N2CCc3cc(F)cc(C)c3C2)[C@H]1c1ccncc1
34 | 56.1 | 112 | 1180 | 52.5 (≈ 146 µM) |  |  | O=C(CN1CCc2ccccc21)N1CCC(c2nc3ccccc3[nH]2)CC1
35 | 0.566 | 7.7 | 228 | 34.4 (≈ 111 µM) |  |  | Brc1cc2c(cc1Cn1cncn1)OCCCO2
36 | 13.7 | ≤ 4.74 | 163 |  |  |  | CCc1[nH]nc(NC2CCN(C(C)C)CC2)c1C
37 | 0.186 | ≤ 4.74 | ≤ 10.7 |  |  |  | CC1(C)CC(CC(=O)NCCn2ccnn2)CC(C)(C)N1
38 | 0.595 | 12.1 | 424 | 36.9 (≈ 119 µM) |  |  | O=C1c2cccc3cccc(c23)C(=O)N1CCN1CCOCC1
39 |  | ≤ 4.74 | 75.8 | 64.7 (≈ 204 µM) |  |  | CCOC(C)C(=O)N1CCC(n2c(=O)[nH]c3ccccc32)CC1 (stereo unspecified)
40 | 2.77 | 7.16 | 315 |  |  |  | CN1CCC[C@H]1C(=O)N[C@@H](CO)Cc1ccccc1

Reference: the Biogen ADME set (Fang et al. 2023)
